Consider 5 compounds from US5384417A, “Heptitols” (priority 1994, dated 1995).

Holding throughout (assay type): biochemical
Test [1] deals with T1, β-Galactosidase (Homo sapiens, UniProt P16278).
T1 construct: Human liver glycosidases were assayed; from tissue; host or cells: human liver
T1 sequence (P16278 29-677): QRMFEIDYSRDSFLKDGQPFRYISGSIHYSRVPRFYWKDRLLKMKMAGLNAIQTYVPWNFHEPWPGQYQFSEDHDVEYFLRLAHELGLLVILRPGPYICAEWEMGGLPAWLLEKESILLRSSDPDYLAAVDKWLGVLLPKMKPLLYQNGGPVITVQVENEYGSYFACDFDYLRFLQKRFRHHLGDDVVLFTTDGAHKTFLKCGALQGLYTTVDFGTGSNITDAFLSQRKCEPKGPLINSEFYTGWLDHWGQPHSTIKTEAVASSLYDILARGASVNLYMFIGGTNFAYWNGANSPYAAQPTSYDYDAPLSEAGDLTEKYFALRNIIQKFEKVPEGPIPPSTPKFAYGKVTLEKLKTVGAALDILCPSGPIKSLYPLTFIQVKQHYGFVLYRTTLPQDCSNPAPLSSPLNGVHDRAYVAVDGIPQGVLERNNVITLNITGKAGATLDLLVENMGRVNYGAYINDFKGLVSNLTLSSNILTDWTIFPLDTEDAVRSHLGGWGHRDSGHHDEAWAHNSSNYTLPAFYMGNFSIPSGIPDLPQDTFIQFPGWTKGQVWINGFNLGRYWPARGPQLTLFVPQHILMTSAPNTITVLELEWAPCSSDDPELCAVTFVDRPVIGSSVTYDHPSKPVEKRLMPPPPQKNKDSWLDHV
Put plainly: inhibition of human liver β-galactosidase. The following applies: 1 mM inhibitor; read-out: % Inhibition of Glycosidase Activity, β-Galactosidase. On the procedure:
(§1) Human liver glycosidases were assayed in the absence and presence [1 mM] of each of the potential inhibitors, using the appropriate buffered 4-methylumbelliferyl glycosides as substrates, as previously described.^17 See Table I, below.

For test [2], the target named is T2, α-Galactosidase (Homo sapiens, UniProt P06280).
T2 construct: Human liver glycosidases were assayed; from tissue; host or cells: human liver
T2 sequence (P06280 32-429): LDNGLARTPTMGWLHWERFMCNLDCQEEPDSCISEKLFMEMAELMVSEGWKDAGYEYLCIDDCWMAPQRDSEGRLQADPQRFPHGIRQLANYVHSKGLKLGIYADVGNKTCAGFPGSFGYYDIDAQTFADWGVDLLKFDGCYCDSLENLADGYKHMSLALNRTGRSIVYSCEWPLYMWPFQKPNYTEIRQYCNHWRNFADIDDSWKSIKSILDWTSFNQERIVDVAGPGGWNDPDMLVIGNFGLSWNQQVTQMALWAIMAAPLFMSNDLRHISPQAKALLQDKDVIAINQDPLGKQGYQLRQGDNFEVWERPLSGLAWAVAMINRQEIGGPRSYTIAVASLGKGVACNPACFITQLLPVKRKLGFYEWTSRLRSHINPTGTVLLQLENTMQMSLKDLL
The experiment in a line: inhibition of human liver α-galactosidase. The following applies: read-out: % Inhibition of Glycosidase Activity, α-Galactosidase. On the procedure: as §1

The test system of test [3] is α-mannosidases. Put plainly: inhibition of human liver α-mannosidases (multiple forms taken together). The following applies: for inhibition of α-mannosidases (in words): 1 mM. The method, then: as §1
Test [4] has as its target T3, β-Mannosidase (Homo sapiens, UniProt O00462).
T3 construct: Human liver glycosidases were assayed; from tissue; host or cells: human liver
T3 sequence (O00462 18-879): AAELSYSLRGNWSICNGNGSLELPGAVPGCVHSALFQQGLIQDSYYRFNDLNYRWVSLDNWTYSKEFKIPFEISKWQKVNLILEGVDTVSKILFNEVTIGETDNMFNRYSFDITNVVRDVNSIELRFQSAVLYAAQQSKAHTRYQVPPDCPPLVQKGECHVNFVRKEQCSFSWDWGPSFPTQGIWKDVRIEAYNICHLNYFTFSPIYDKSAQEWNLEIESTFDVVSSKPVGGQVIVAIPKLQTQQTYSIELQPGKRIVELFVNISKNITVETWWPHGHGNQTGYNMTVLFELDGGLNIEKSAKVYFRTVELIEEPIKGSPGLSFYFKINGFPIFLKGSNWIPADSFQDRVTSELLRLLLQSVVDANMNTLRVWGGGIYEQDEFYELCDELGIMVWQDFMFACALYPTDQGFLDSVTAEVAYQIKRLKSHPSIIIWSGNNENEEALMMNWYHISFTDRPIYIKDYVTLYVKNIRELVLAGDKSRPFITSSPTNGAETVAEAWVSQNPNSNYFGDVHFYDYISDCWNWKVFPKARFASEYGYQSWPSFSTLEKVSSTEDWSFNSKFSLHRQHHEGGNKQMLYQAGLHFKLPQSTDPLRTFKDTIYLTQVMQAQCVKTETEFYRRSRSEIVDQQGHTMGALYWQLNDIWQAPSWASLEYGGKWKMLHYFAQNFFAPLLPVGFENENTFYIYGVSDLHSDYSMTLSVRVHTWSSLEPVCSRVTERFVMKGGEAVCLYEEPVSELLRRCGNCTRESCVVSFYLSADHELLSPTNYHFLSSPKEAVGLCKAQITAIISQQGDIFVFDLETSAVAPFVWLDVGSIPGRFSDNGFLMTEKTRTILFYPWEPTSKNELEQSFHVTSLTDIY
The experiment in a line: inhibition of human liver β-mannosidase. The following applies: read-out: % Inhibition of Glycosidase Activity, β-Mannosidase. On the procedure: as §1

The target of test [5] is T4, β-Glucuronidase (Homo sapiens, UniProt P08236).
T4 construct: Human liver glycosidases were assayed; from tissue; host or cells: human liver
T4 sequence (P08236 23-633 limits assumed): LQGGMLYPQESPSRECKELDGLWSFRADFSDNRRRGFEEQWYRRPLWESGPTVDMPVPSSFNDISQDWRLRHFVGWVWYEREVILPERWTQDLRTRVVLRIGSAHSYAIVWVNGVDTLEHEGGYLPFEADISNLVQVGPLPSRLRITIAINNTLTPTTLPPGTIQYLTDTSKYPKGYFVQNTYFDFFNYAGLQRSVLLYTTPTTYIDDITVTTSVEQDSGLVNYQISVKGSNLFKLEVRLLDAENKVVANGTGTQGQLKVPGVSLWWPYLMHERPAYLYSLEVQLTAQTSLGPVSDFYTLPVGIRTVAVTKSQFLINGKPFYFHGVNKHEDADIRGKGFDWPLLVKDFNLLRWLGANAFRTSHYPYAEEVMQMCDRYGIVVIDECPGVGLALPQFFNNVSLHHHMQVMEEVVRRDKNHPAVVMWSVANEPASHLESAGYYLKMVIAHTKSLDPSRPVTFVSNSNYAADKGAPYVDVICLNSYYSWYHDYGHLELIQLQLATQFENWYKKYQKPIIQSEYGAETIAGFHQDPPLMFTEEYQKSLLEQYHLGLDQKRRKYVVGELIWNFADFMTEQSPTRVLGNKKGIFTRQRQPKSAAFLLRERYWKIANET
Put plainly: inhibition of human liver β-glucuronidase. The following applies: read-out: % Inhibition of Glycosidase Activity, β-Glucuronidase. The method, then: as §1

Read-outs that look alike come from different tables or passages of the source.

Broadly, the inhibition is how much of the control response was suppressed. For `OC[C@@H](O)[C@H]1NC[C@@H](O)[C@H]1O` [DIM (3)], the inhibition at 1000 µM was determined as 76% in test [1], 0% in test [2] (1 mM inhibitor), 0% in test [4] (1 mM inhibitor) and 9% in test [5] (1 mM inhibitor). Also, the “inhibition of α-mannosidases (in words)” value in test [3] was “much more potent inhibitor than the piperidine analogues (1) and (2) of all the mannosidases investigated”.
In the case of `OC[C@H]1N[C@H](CO)[C@@H](O)C(O)[C@@H]1O` (some centres unmarked) [αHomoDMJ (2)], the inhibition at 1000 µM in test [1], in test [2] (1 mM inhibitor), in test [4] (1 mM inhibitor) and in test [5] (1 mM inhibitor) was 0% in each case. Also, the “inhibition of α-mannosidases (in words)” value in test [3] is “does not affect appreciably the inhibition of the multiple forms of α-mannosidase”. Moreover, the “selectivity for α-mannosidases (in words)” value in test [3] (compared with parent compound DMJ (1)) is recorded as “much more selective inhibitor of α-mannosidases than is the parent compound DMJ (1)”.
For the compound `NC[C@H]1O[C@H]([C@H](O)CO)[C@H](O)[C@@H]1O` [Manhepamine (5), 1-amino-2,5-anhydro-1-deoxy-D-glycero-D-talo-heptitol], the inhibition at 1000 µM in test [1] was 0%; in test [2] (1 mM inhibitor), 0%; in test [4] (1 mM inhibitor), 3%; in test [5] (1 mM inhibitor) it was 7%. The “inhibition of α-mannosidases (in words)” value in test [3] is “did not inhibit any of the α-mannosidases”; in test [3] (listed as α-(aminomethyl)-1-deoxy-mannofuranose (5)), “relatively inactive against α-mannosidases”.
Turning to `OC[C@@H](O)[C@H]1N[C@H](CO)[C@@H](O)[C@H]1O` [αHomoDIM (4), 2,5-dideoxy-2,5-imino-D-glycero-D-talo-heptitol], the inhibition at 1000 µM in test [1] was 35%; in test [2] (1 mM inhibitor) it was 11%; in test [4] (1 mM inhibitor) it was 18%; in test [5] (1 mM inhibitor) it was 0%. In addition, the “inhibition of α-mannosidases (in words)” value in test [3] is “still retaining significant inhibitory properties towards α-mannosidases”. Further, the “inhibitory activity against α-mannosidase relative to DMJ” value in test [3] (compared with DMJ (1)) is recorded as “about twice as effective as DMJ”.
`OC[C@H]1NC[C@@H](O)[C@@H](O)[C@@H]1O` [DMJ (1), deoxymannojirimycin]: the inhibition at 1000 µM in test [2] amounted to 0%; in test [4], 0%; in test [5], 53%.
